Data from patent US9868744B2, “Heteroaromatic compounds and their use as dopamine D1 ligands” (PFIZER INC., priority 2014, dated 2018).
Read-outs that look alike come from different tables or passages of the source.

Molecular target: Human D1 Receptor (Homo sapiens (Human), UniProt P21728)
Experiment: Human D1 receptor binding assay ([^3H]-SCH23390 competition)
Conditions: read-out: Human D1 Receptor Binding, Ki (nM), Geometric mean of 2-4 determinations (unless otherwise indicated)
Protocol: D1 binding assays were performed using over-expressing LTK human cell lines. […] These ligand and tissue concentrations were used in time course studies to determine linearity and equilibrium conditions for binding. […] The pellet was resuspended in assay buffer [50 mM Tris (pH 7.4@ RT) containing 4 mM MgSO4 and 0.5 mM EDTA]. […] Non-specific binding was determined by radioligand binding in the presence of a saturating concentration of (+)-Butaclamol (10 μM), a D1 antagonist. After a 30 minute incubation period at 37° C., assay samples were rapidly filtered through Unifilter-96 GF/B PEI-coated filter plates and rinsed with 50 mM Tris buffer (pH 7.4 at 4° C.). […] Ki values were calculated according to the Cheng-Prusoff equation: […]

Chain of Human D1 Receptor (P21728 whole entry): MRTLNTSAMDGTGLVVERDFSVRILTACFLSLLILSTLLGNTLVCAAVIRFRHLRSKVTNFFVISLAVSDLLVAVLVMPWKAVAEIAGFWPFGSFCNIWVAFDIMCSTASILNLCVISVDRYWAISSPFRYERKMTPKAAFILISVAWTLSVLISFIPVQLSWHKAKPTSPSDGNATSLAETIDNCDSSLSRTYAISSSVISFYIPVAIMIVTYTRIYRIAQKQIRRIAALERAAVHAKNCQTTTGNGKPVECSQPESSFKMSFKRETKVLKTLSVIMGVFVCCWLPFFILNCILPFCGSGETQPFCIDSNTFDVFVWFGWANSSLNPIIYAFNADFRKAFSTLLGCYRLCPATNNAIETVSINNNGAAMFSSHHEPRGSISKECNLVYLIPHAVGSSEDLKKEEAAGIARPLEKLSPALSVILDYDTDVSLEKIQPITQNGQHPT

SMILES | Ki (competition with 0.5 nM [^3H]-SCH23390, over-expressing LTK human cell lines, 30 min at 37° C., values marked ^a are from a single determination) [nM] | Ki [nM]
Cc1cc(Oc2nccc3sncc23)ccc1-c1c(C)n[nH]c(=O)c1C [Example 10, 4,6-dimethyl-5-[2-methyl-4-([1,2]thiazolo[4,5-c]pyridin-4-yloxy)phenyl]pyridazin-3(2H)-one] | 32.7 | –
Cc1cc(Oc2ncnc3occc23)ccc1-c1c(C)ncnc1C [Example 1, 4-[4-(4,6-dimethylpyrimidin-5-yl)-3-methylphenoxy]furo[2,3-d]pyrimidine] | – | 166
Cc1cc(Oc2nccc3[nH]cnc23)ccc1-c1c(C)ncc2nccn12 [Example 2, 4-[3-methyl-4-(6-methylimidazo[1,2-a]pyrazin-5-yl)phenoxy]-1H-imidazo[4,5-c]pyridine] | – | 374
